The values below are quoted from earlier work in patent EP0072762B1, “Fluorinated diaminoalkene derivatives” (priority 1981, dated 1983).

The subject of the series is tumor. As to conditions: administered intravenously once or twice a week, cited from earlier work.

Turning to `CC(C=NNC(=N)N)=NNC(=N)N` [MGBG, methylglyoxal bis(guanylhydrazone)], the “complete disappearance of the diseases” value (65 treated patients) is given as “two of the 65 treated patients”. For the setting “patients in advanced stages of various carcinomas, lymphoma, leukemia etc.”, the “regression of the tumor” value was “measurable regression of the tumor in many of the patients treated”.
